Results on 20 molecules are retold here after BindingDB's records for doi:10.1016/j.bmcl.2003.10.007 (Inotek Pharmaceuticals, 2003).

Molecules are shown by their SMILES. Counter-ions that a name gives are not always drawn.

The term IC50 denotes the point on the concentration scale where inhibition reaches its midpoint. A low value points to greater potency.

The test in a line: Tested for inhibition of poly(ADP-ribose) polymerase-1 (PARP-1) in mouse using Cell protection assay.
`CN1CCN(CCC(=O)Nc2cccc3c2CNC3=O)CC1` [3-(4-Methyl-piperazin-1-yl)-N-(1-oxo-2,3-dihydro-1H-isoindol-4-yl)-propionamide] yielded an IC50 above 30 µM.
`CNCC(=O)Nc1cccc2c1CNC2=O` [2-Methylamino-N-(1-oxo-2,3-dihydro-1H-isoindol-4-yl)-acetamide]: the IC50 was above 30 µM.
In the case of `O=C(CCCCCCC(=O)Nc1cccc2c1CNC2=O)NC[C@H]1OC(n2cnc3c(=O)[nH]cnc32)[C@H](O)[C@@H]1O` (stereo not given in full) it was 68 µM.
Next, `Nc1ncnc2c1ncn2C1O[C@H](CNC(=O)CC(=O)Nc2cccc3c2CNC3=O)[C@@H](O)[C@H]1O` (stereo not given in full): 1.9 µM.
Next, `CN1CCN(CC(=O)Nc2cccc3c2CNC3=O)CC1` [2-(4-Methyl-piperazin-1-yl)-N-(1-oxo-2,3-dihydro-1H-isoindol-4-yl)-acetamide]: above 30 µM.
Molecule `Nc1ncnc2c1ncn2C1O[C@H](CNC(=O)CCCCCCC(=O)Nc2cccc3c2CNC3=O)[C@@H](O)[C@H]1O` (stereo not given in full) showed an IC50 of 0.7 µM.
`CCNCC(=O)Nc1cccc2c1CNC2=O` [2-Ethylamino-N-(1-oxo-2,3-dihydro-1H-isoindol-4-yl)-acetamide] registered an IC50 of 18 µM.
In the case of `Nc1ncnc2c1ncn2C1O[C@H](CNC(=O)/C=C/c2ccc(C(=O)Nc3cccc4c3CNC4=O)cc2)[C@@H](O)[C@H]1O` (stereo not given in full) it was 10 µM; in that of `CNc1ncnc2c1ncn2CC(=O)Nc1cccc2c1CNC2=O` [2-(6-Methylamino-purin-9-yl)-N-(1-oxo-2,3-dihydro-1H-isoindol-4-yl)-acetamide], 3 µM; in that of `O=C1N=Cc2ccccc21` [Isoindol-1-one], 30 µM.
For `O=C(CN1CCNCC1)Nc1cccc2c1CNC2=O` [N-(1-Oxo-2,3-dihydro-1H-isoindol-4-yl)-2-piperazin-1-yl-acetamide; hydrochloride], the IC50 turned out to be 18 µM.
`Nc1ncnc2c1ncn2C1O[C@H](CNC(=O)CCC(=O)Nc2cccc3c2CNC3=O)[C@@H](O)[C@H]1O` (stereo not given in full) showed an IC50 of 0.1 µM.
As for `Nc1ncnc2c1ncn2[C@@H]1O[C@H](C(=O)N2CCN(CC(=O)Nc3cccc4c3CNC4=O)CC2)[C@@H](O)[C@H]1O` [2-(4-((2S,3S,4R,5R)-5-(6-amino-9H-purin-9-yl)-3,4-dihydroxytetrahydrofuran-2-carbonyl)piperazin-1-yl)-N-(1-oxoisoindolin-4-yl)acetamide], the IC50 came out at 0.045 µM.
In the case of `Nc1cccc2c1CNC2=O` [4-Amino-2,3-dihydro-isoindol-1-one] it was 30 µM; in that of `Nc1ncnc2c1ncn2C1O[C@H](CNC(=O)CCCCCCCC(=O)Nc2cccc3c2CNC3=O)[C@@H](O)[C@H]1O` (stereo not given in full), 2 µM.
Next, `O=C(Cn1cnc2ccccc21)Nc1cccc2c1CNC2=O` [2-Benzoimidazol-1-yl-N-(1-oxo-2,3-dihydro-1H-isoindol-4-yl)-acetamide]: 3 µM.
Next, `O=C(CN1CCOCC1)Nc1cccc2c1CNC2=O` [2-Morpholin-4-yl-N-(1-oxo-2,3-dihydro-1H-isoindol-4-yl)-acetamide]: above 30 µM.
`Nc1ncnc2c1ncn2C1OC(CNC(=O)CCC(=O)Nc2cccc(-c3ccccc3)c2)[C@@H](O)[C@H]1O` (stereo partly drawn) [N-[(3S,4R)-5-(6-Amino-purin-9-yl)-3,4-dihydroxy-tetrahydro-furan-2-ylmethyl]-N'-biphenyl-3-yl-succinamide] returned an IC50 of 5 µM.
Take `Nc1ncnc2c1ncn2C1O[C@H](CNC(=O)CCCCCC(=O)Nc2cccc3c2CNC3=O)[C@@H](O)[C@H]1O` (stereo not given in full): the IC50 was determined as 3 µM.
Consider `Nc1ncnc2c1ncn2C1O[C@H](C(=O)N2CCNCC2)[C@@H](O)[C@H]1O` (stereo not given in full), for which the IC50 was above 300 µM.
